In article PMC8081663, “A biosensor for the direct visualization of auxin” (Nature, 2021):

Tests used:
Test in all cases: ITC, one-site model
Type in all cases: binding
TrpR [1] = target: T1, TrpR (Escherichia coli, UniProt P0A881)
T1 construct: TrpR without fluorescent proteins, pET21b(+), expressed in E. coli BL21(DE3), NiIMAC and Superdex S75; homodimer; template Trp-CTY / Trp-CTYT sensors (Addgene 13533, 13534)
From the text: (§1) ITC, one-site model on TrpR

TrpR [2] = target: T2, TrpR (Escherichia coli, UniProt P0A881, M42F/N87G/S88Y/T44L/T81M)
T2 construct: TrpR without fluorescent proteins, pET21b(+), expressed in E. coli BL21(DE3), NiIMAC and Superdex S75; homodimer; template Trp-CTY / Trp-CTYT sensors (Addgene 13533, 13534)
From the text: as §1

TrpR [3] = target: T3, TrpR (Escherichia coli, UniProt P0A881, N87G/S88Y/T44L/T81M)
T3 construct: TrpR without fluorescent proteins, pET21b(+), expressed in E. coli BL21(DE3), NiIMAC and Superdex S75; homodimer; template Trp-CTY / Trp-CTYT sensors (Addgene 13533, 13534)
From the text: as §1

TrpR [4] = target: T4, TrpR (Escherichia coli, UniProt P0A881, S88Y)
T4 construct: TrpR without fluorescent proteins, pET21b(+), expressed in E. coli BL21(DE3), NiIMAC and Superdex S75; homodimer; template Trp-CTY / Trp-CTYT sensors (Addgene 13533, 13534)
From the text: as §1

TrpR [5] = target: T5, TrpR (Escherichia coli, UniProt P0A881, S88Y/T44L)
T5 construct: TrpR without fluorescent proteins, pET21b(+), expressed in E. coli BL21(DE3), NiIMAC and Superdex S75; homodimer; template Trp-CTY / Trp-CTYT sensors (Addgene 13533, 13534)
From the text: as §1

TrpR [6] = target: T6, TrpR (Escherichia coli, UniProt P0A881, S88Y/T44L/T81M)
T6 construct: TrpR without fluorescent proteins, pET21b(+), expressed in E. coli BL21(DE3), NiIMAC and Superdex S75; homodimer; template Trp-CTY / Trp-CTYT sensors (Addgene 13533, 13534)
From the text: as §1

| Kd (TrpR [1]) | SMILES | Kd (TrpR [2]) | Kd (TrpR [3]) | Kd (TrpR [4]) | Kd (TrpR [5]) | Kd (TrpR [6]) |
| --- | --- | --- | --- | --- | --- | --- |
| 137.4 ± 0.5 µM | O=C(O)Cc1c[nH]c2ccccc12 [IAA] | 1.5 ± 0.1 µM | 1.6 µM | 14.6 ± 0.1 µM | 7.8 ± 0.3 µM | 3 ± 0.1 µM |
| 25 ± 0.7 µM | N[C@@H](Cc1c[nH]c2ccccc12)C(=O)O [TRP] | – | – | – | – | – |

| SMILES | Kd (TrpR [1]) | Kd (TrpR [2]) | Kd (TrpR [3]) | Kd (TrpR [4]) | Kd (TrpR [5]) | Kd (TrpR [6]) |
| --- | --- | --- | --- | --- | --- | --- |
| N#CCc1c[nH]c2ccccc12 [IAN] | 63.7 ± 1.7 µM | 14.3 ± 0.4 µM | 46.4 ± 1.7 µM | 17.9 ± 0.6 µM | 19.5 ± 0.6 µM | 33.6 ± 0.2 µM |
